According to the supplement of paper PMC10307832:

How the values were obtained:
Test in all cases: relative viability (nuclei count vs DMSO), 5 days (fraction); higher = more cells survive
[1] = compound: C1CNCCC1C2=CC(=NN2)C3=CC=NC=C3
Method in brief: (§1)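 Five library-drug doses, separated by factors of √10, were pinned into 1536-well plates holding lung cancer cell lines after an overnight stay at 37 °C. Cells were fixed, permeabilised and Hoechst-stained in one step after 5 days without medium change, then imaged at 4×. Viability compares treated-well with vehicle-well nuclei, counted in MetaXpress, as a median across plates. Passing plates had control CV below 25% and at least one doubling.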

[2] = compound: C[C@@H](N)c1ccc(C(=O)Nc2ccnc3[nH]ccc23)cc1
Method in brief: as §1

[3] = compound: O[C@H]1CC[C@H](Nc2ncc3nc(Nc4c(F)cc(F)cc4F)n([C@H]4CCOC4)c3n2)CC1 [Tanzisertib]
Method in brief: as §1

[4] = compound: C[C@@H](N)c1ccc(C(=O)Nc2ccnc3[nH]ccc23)cc1 + C[C@@H](Oc1cc(-c2cnn(C3CCNCC3)c2)cnc1N)c1c(Cl)ccc(F)c1Cl [Crizotinib] (partner 1 µM)
Method in brief: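 Lung cancer cell lines, seeded in 1536-well plates, were treated the following day by pin tool with a single drug or with five library-drug doses (not always all listed) in √10 steps on top of a fixed anchor-drug dose. Cells were fixed and nuclei stained in one step after 5 days, and nuclei were counted. Relative viability is the nuclei count for treated wells divided by that for vehicle wells, reported as medians of duplicate plates.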

Cell Line	relative viability ([1]; 0.08 µM)	relative viability ([1]; 0.8 µM)	relative viability ([1]; 2.53 µM)	relative viability ([1]; 8 µM)	relative viability ([2]; 0.04 µM)	relative viability ([2]; 0.1265 µM)	relative viability ([2]; 0.4 µM)	relative viability ([2]; 1.265 µM)	relative viability ([2]; 4 µM)	relative viability ([3]; 0.08 µM)	relative viability ([3]; 0.253 µM)	relative viability ([3]; 0.8 µM)	relative viability ([3]; 2.53 µM)	relative viability ([3]; 8 µM)	relative viability ([4]; first compound 0.04 µM)	relative viability ([4]; first compound 0.1265 µM)	relative viability ([4]; first compound 0.4 µM)	relative viability ([4]; first compound 1.265 µM)	relative viability ([4]; first compound 4 µM)
201T	0.97	0.993	0.983	0.938	1.01	0.971	1.01	0.976	1.12	1	0.969	0.997	0.933	0.898	1.02	1.02	0.959	1.09	1.1
A549	0.872	1.03	1.07	1.05	1.02	1.03	1.19	0.944	0.829	1	0.99	0.976	1	0.856	0.833	0.793	0.734	0.504	0.268
A-427	0.953	1.05	0.984	1.05	0.862	1.07	0.975		0.906	0.997	0.998	1.07	1.08	0.789	0.875	0.882	0.959		0.894
ABC-1	0.975	0.817	1.07	1.02	0.767	1.07	0.918	0.579	0.901	1.03	0.995	0.882	1	0.957	1.47	1.19	1.4	1.6	0.857
BEN	0.825	0.888	0.984	1.04	0.927	0.954	1.04	1.01	0.718	0.977	1.01	0.997	1.08	0.832	0.952	0.828	0.918	1.09	0.675
CAL-12T	1.01	1.18	1.08	0.99	1.11	1.04	1.23	0.945	0.839	1.03	1.09	1.08	1.05	1.03	0.795	0.78	0.845	0.529	0.252
COR-L23	1.02	1.19	0.991	0.982	0.913	1.17	0.941	0.878	0.646	1.06	1.04	1.07	1.06	1.04	0.64	0.741	0.647	0.412	0.17
COR-L 105	0.857	0.925	1.02	0.923	0.91	0.964	1.11	0.7	0.735	1.08	0.899	0.918	1.15	0.706	0.721	0.747	0.652	0.537	0.408
Calu-6	0.964	1.02	1.01	0.998	1.02	1.03	1.03	0.935	0.826	1.01	1.01	1.01	1.01	0.931	0.761	0.76	0.741	0.682	0.489
ChaGo-K-1	0.93	1.05	0.952	0.91	1.08	0.999	1.02	0.804	0.888	1.05	0.999	0.984	0.992	0.986	1.07	1.17	1.1		0.846
EBC-1	1.09	0.981	1.06	1.02	1.06	1.01	1.08	1.01	0.991	1.16	0.991	0.971	0.871	0.825	0.216	0.184	0.189	0.141	0.145
EKVX	1.03	0.877	1.12	0.989	1.09	1.12	1.12	0.811	0.885	1.08	1.05	0.96	0.901	0.723	0.979	1.03	1.04	1.05	0.963
EMC-BAC-2	0.78	0.97	1.07	0.98	0.769	1.02	0.945	0.789	0.795	0.989	1.31	0.99	1.04	0.82	0.806	0.793	0.707	0.764	0.655
EPLC-272H	0.902	0.94	0.929	0.98	0.9	0.973	1.11	0.356	0.791	1.14	0.95	1.09	0.908	0.761	0.922	0.891	0.957		0.61
H3255	0.934	0.952	1.2	1	1	1.21	1.16	1.01	0.925	0.998	1.03	1.08	0.957	0.599	0.862	0.979	1.04	0.972	0.761
HARA	1.05	0.898	1.16	0.928	1	0.929	1.11	0.689	0.779	1.12	1.12	0.932	1.05	0.725	1.18	1.13	1.21	0.835	0.735
HCC-15	0.987	1.1	0.98	0.939	1.03	0.971	1.02	0.623	0.908	1.16	1	1.04	0.944	0.768	0.903	0.781	0.805		0.72
HCC-44	0.999	1.05	1	0.999	0.95	0.988	1.03	0.927	0.941	0.985	1.11	1.07	1.04	1.11	0.82	0.776	0.86	0.995	0.652
